Data: patent US8071625B2, “Certain chemical entities, compositions, and methods” (Cytokinetics, Inc., priority 2006, dated 2011)

Biological target: T1, crosslinked smooth muscle actomyosin (chicken gizzard smooth muscle myosin subfragment-1 crosslinked to cardiac or skeletal actin) (Gallus gallus, UniProt P10587)
T1 construct: chicken gizzard smooth muscle myosin subfragment-1; from tissue; host or cells: chicken gizzard
Test: Lead optimization pyruvate kinase/horseradish peroxidase/pyruvate oxidase-coupled ATPase assay (compound dose response)
Type: biochemical
Conditions: read-out: IC50 Arithmetic Mean
In short: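 IC50 is the midpoint of a 4-parameter dose–response fit of Amplex Red fluorescence (480/615 nm). Buffer was 12 mM potassium PIPES pH 7.00 at 22 °C with 100 mM KCl, 2 mM MgCl2, 0.15 mM ATP and 2 mM phosphate, with PK/pyruvate oxidase/HRP coupling. Enzyme: smooth muscle myosin S1 crosslinked to cardiac or skeletal actin, dosed empirically by activity.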

Structure (SMILES) | IC50 [µM]
CCc1ccc(NC(=O)OCC2(C(=O)NCc3ccccc3Cl)CCN(C(=O)[C@H](C)N)CC2)cc1 [(1-((2S)-2-aminopropanoyl)-4-{[N-(4-ethylphenyl)carbamoyloxy]methyl}(4-piperidyl))-N-[(2-chlorophenyl)methyl]carboxamide] | 0.724
CCc1ccc(NC(=O)OCC2(C(=O)NCc3ccccc3Cl)CCN(C(=O)C3CCN3)CC2)cc1 (stereo not shown) [(1-(azetidin-2-ylcarbonyl)-4-{[N-(4-ethylphenyl)carbamoyloxy]methyl}(4-piperidyl))-N-[(2-chlorophenyl)methyl]carboxamide] | 0.221
CCc1ccc(NC(=O)OCC2(C(=O)NCc3ccccc3Cl)CCN(S(=O)(=O)CCN)CC2)cc1 [(1-[(2-aminoethyl)sulfonyl]-4-{[N-(4-ethylphenyl)carbamoyloxy]methyl}(4-piperidyl))-N-[(2-chlorophenyl)methyl]carboxamide] | 0.274
CCc1ccc(NC(=O)OCC2(C(=O)NCc3ccccc3Cl)CCN(C(C)=O)CC2)cc1 [(1-acetyl-4-{[N-(4-ethylphenyl)carbamoyloxy]methyl}(4-piperidyl))-N-[(2-chlorophenyl)methyl]carboxamide] | 0.418
CCc1ccc(NC(=O)OCC2(C(=O)NCc3ccccc3C#N)CCN(C(=O)CNC(=O)OC(C)(C)C)CC2)cc1 [(1-{2-[(tert-butoxy)carbonylamino]acetyl}-4-{[N-(4-ethylphenyl)carbamoyloxy]methyl}(4-piperidyl))-N-[(2-cyanophenyl)methyl]carboxamide] | 7.69
CCc1ccc(NC(=O)OCC2(C(=O)NCc3ccccc3OC)CCN(C(=O)CNC(=O)OC(C)(C)C)CC2)cc1 [(1-{2-[(tert-butoxy)carbonylamino]acetyl}-4-{[N-(4-ethylphenyl)carbamoyloxy]methyl}(4-piperidyl))-N-[(2-methoxyphenyl)methyl]carboxamide] | 11.3
CCc1ccc(NC(=O)NC[C@@H]2CCCN2C(=O)OCc2ccccc2Cl)cc1 [(2-chlorophenyl)methyl (2S)-2-({[(4-ethylphenyl)amino]carbonylamino}methyl)pyrrolidinecarboxylate] | 3.53
CCc1ccc(NC(=O)OCCOC(=O)NCc2ccccc2Cl)cc1 [(2-{N-[(2-chlorophenyl)methyl]carbamoyloxy}ethoxy)-N-(4-ethylphenyl)carboxamide] | 3.69
CCc1ccc(NC(=O)OCC2CN(C(=O)CN)CCN2C(=O)NCc2ccccc2Cl)cc1 (stereo not shown) [(4-(2-aminoacetyl)-2-{[N-(4-ethylphenyl)carbamoyloxy]methyl}piperazinyl)-N-[(2-chlorophenyl)methyl]carboxamide] | 2.38
CCc1ccc(NC(=O)N2CCN(C(=O)CN)C(C(=O)NCc3ccccc3Cl)C2)cc1 (stereo not shown) [(4-(2-aminoacetyl)-3-{N-[(2-chlorophenyl)methyl]carbamoyl}piperazinyl)-N-(4-ethylphenyl)carboxamide] | 15.2
Cc1ccc(NC(=O)OCC2(C(=O)NCc3ccccc3Cl)CCOCC2)c(C)c1 [(4-{[N-(2,4-dimethylphenyl)carbamoyloxy]methyl}(2H-3,4,5,6-tetrahydropyran-4-yl))-N-[(2-chlorophenyl)methyl]carboxamide] | 1.26
O=C(Nc1ccccc1Cl)OCC1(C(=O)NCc2ccccc2Cl)CCOCC1 [(4-{[N-(2-chlorophenyl)carbamoyloxy]methyl}(2H-3,4,5,6-tetrahydropyran-4-yl))-N-[(2-chlorophenyl)methyl]carboxamide] | 17.3
Cc1ccc(NC(=O)OCC2(C(=O)NCc3ccccc3Cl)CCOCC2)cc1C [(4-{[N-(3,4-dimethylphenyl)carbamoyloxy]methyl}(2H-3,4,5,6-tetrahydropyran-4-yl))-N-[(2-chlorophenyl)methyl]carboxamide] | 2.34
O=C(Nc1cc(Cl)cc(Cl)c1)OCC1(C(=O)NCc2ccccc2Cl)CCOCC1 [(4-{[N-(3,5-dichlorophenyl)carbamoyloxy]methyl}(2H-3,4,5,6-tetrahydropyran-4-yl))-N-[(2-chlorophenyl)methyl]carboxamide] | 18.3
Cc1c(Cl)cccc1NC(=O)OCC1(C(=O)NCc2ccccc2Cl)CCOCC1 [(4-{[N-(3-chloro-2-methylphenyl)carbamoyloxy]methyl}(2H-3,4,5,6-tetrahydropyran-4-yl))-N-[(2-chlorophenyl)methyl]carboxamide] | 16.2
Cc1ccc(NC(=O)OCC2(C(=O)NCc3ccccc3Cl)CCOCC2)cc1Cl [(4-{[N-(3-chloro-4-methylphenyl)carbamoyloxy]methyl}(2H-3,4,5,6-tetrahydropyran-4-yl))-N-[(2-chlorophenyl)methyl]carboxamide] | 1.96
CC(=O)c1ccc(NC(=O)OCC2(C(=O)NCc3ccccc3Cl)CCOCC2)cc1 [(4-{[N-(4-acetylphenyl)carbamoyloxy]methyl}(2H-3,4,5,6-tetrahydropyran-4-yl))-N-[(2-chlorophenyl)methyl]carboxamide] | 4.27
CC(=O)c1ccc(NC(=O)OCC2(C(=O)NCc3ccccc3Cl)CCN(C(=O)CN)CC2)cc1 [(4-{[N-(4-acetylphenyl)carbamoyloxy]methyl}-1-(2-aminoacetyl)(4-piperidyl))-N-[(2-chlorophenyl)methyl]carboxamide] | 1.19
O=C(Nc1ccc(Cl)cc1)OCC1(C(=O)NCc2ccccc2Cl)CCOCC1 [(4-{[N-(4-chlorophenyl)carbamoyloxy]methyl}(2H-3,4,5,6-tetrahydropyran-4-yl))-N-[(2-chlorophenyl)methyl]carboxamide] | 2.78
CCc1ccc(NC(=O)N[C@H]2CCCC[C@@H]2C(=O)NCc2ccccc2Cl)cc1 [((1S,2S)-2-{[(4-ethylphenyl)amino]carbonylamino}cyclohexyl)-N-[(2-chlorophenyl)methyl]carboxamide] | 16.8
CCc1ccc(NC(=O)OC[C@@H]2CCCN2C(=O)NCc2ccccc2Cl)cc1 [((2S)-2-{[N-(4-ethylphenyl)carbamoyloxy]methyl}pyrrolidinyl)-N-[(2-chlorophenyl)methyl]carboxamide] | 0.185
CCc1ccc(NC(=O)OC[C@@H]2C[C@@H](N)CN2C(=O)NCc2ccccc2Cl)cc1 [((5S,3R)-3-amino-5-{[N-(4-ethylphenyl)carbamoyloxy]methyl}pyrrolidinyl)-N-[(2-chlorophenyl)methyl]carboxamide] | 1.44
CCc1ccc(NC(=O)N(CCNC(=O)OC(C)(C)C)CC2(C(=O)NCc3ccccc3Cl)CCN(C(=O)CNC(=O)OC(C)(C)C)CC2)cc1 [(tert-butoxy)-N-(2-{N-[(1-{2-[(tert-butoxy)carbonylamino]acetyl}-4-{N-[(2-chlorophenyl)methyl]carbamoyl}(4-piperidyl))methyl][(4-ethylphenyl)amino]carbonylamino}ethyl)carboxamide] | 19.5
CCc1ccc(NC(=O)OCC2(C(=O)NCc3ccccc3Br)CCN(C(=O)CN(C)C(=O)OC(C)(C)C)CC2)cc1 [(tert-butoxy)-N-[2-(4-{N-[(2-bromophenyl)methyl]carbamoyl}-4-{[N-(4-ethylphenyl)carbamoyloxy]methyl}piperidyl)-2-oxoethyl]-N-methylcarboxamide] | 2.86
CCc1ccc(NC(=O)OCC2(C(=O)NCc3ccccc3Cl)CCN(C(=O)C(CO)NC(=O)OC(C)(C)C)CC2)cc1 (stereo not shown) [(tert-butoxy)-N-[2-(4-{N-[(2-chlorophenyl)methyl]carbamoyl}-4-{[N-(4-ethylphenyl)carbamoyloxy]methyl}piperidyl)-1-(hydroxymethyl)-2-oxoethyl]carboxamide] | 0.661
